Assay results published in patent publication US11780830B2, “Triazolone derivatives or salts thereof and pharmaceutical compositions comprising the same” (YUHAN CORPORATION, priority 2018, dated 2023).
Counter-ions that a name gives are not always drawn.

Legend:
Type in all cases: biochemical
[1] = molecular target: T1, recombinant human DAO (diamine oxidase) (Homo sapiens, UniProt P19801); test: Activity on recombinant human DAO, method similar to the VAP-1 assay; conditions: substrate 1 mM putrescine; read-out: Inhibitory Activity (IC50, nM) DAO
T1 construct: purchased R&D systems
T1 sequence (P19801 20-751): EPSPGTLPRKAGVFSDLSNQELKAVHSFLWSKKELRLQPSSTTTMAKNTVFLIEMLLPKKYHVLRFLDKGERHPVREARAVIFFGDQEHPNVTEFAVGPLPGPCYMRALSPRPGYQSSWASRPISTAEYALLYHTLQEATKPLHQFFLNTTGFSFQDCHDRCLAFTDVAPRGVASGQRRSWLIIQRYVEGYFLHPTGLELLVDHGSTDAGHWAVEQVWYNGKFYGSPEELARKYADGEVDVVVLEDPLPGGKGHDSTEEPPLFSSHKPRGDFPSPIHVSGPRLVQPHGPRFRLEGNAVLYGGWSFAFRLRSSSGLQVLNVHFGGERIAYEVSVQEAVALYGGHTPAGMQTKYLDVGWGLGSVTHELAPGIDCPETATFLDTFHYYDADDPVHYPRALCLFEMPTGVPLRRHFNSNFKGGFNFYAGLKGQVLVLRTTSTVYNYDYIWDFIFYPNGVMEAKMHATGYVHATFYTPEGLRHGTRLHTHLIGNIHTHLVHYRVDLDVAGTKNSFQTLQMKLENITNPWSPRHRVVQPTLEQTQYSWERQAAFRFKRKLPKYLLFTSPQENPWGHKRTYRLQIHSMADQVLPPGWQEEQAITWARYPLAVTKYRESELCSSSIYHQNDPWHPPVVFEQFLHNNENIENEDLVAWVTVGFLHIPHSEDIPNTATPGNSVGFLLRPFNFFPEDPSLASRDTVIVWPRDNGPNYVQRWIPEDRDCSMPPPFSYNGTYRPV
Outline: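 Inhibition of recombinant human diamine oxidase (DAO, R&D systems) was assessed by the same approach as the VAP-1 assay, using 1 mM putrescine as substrate. Hydrogen peroxide formed was detected through an HRP-coupled Amplex Red reaction yielding fluorescent resorufin, read at 544 nm excitation and 590 nm emission. IC50 values came from four-parameter logistic fitting in GraphPad Prism.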

[2] = molecular target: T2, recombinant human MAO-A (monoamine oxidase-A) (Homo sapiens, UniProt P21397); test: Activity on recombinant human MAO-A, method similar to the VAP-1 assay; conditions: substrate 0.5 mM tyramine; read-out: Inhibitory Activity (IC50, nM) MAO-A
T2 construct: purchased Sigma-Aldrich
T2 sequence (P21397 1-527): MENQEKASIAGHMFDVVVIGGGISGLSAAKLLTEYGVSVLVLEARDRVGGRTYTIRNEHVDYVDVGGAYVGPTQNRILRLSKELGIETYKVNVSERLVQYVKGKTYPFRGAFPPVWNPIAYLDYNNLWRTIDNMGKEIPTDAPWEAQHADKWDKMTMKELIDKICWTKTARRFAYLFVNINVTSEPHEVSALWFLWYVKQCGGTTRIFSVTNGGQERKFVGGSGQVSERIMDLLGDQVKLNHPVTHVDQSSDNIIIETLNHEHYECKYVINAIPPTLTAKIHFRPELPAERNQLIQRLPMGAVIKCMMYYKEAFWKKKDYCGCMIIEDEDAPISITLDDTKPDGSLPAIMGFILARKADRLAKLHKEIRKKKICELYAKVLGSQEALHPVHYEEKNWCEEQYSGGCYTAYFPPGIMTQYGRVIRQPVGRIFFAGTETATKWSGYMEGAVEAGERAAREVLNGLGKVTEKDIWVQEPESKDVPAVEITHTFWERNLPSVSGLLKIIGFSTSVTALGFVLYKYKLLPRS
Outline: (§1)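 8-point, 1:3 dose-response, four-parameter logistic IC50 from reduction in fluorescence rate versus DMSO control. HRP/Amplex Red detection of H2O2 (ex 544, em 590 nm) after 30 min, 37 °C compound–enzyme preincubation in pH 7.4 phosphate buffer. MAO-A substrate: 0.5 mM tyramine; MAO-B: 1 mM benzylamine.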

recombinant human VAP-1 = molecular target: T3, recombinant human VAP-1 (Homo sapiens, UniProt Q16853); test: Activity on recombinant human VAP-1, HRP-coupled Amplex Red hydrogen peroxide assay; conditions: substrate 1 mM benzylamine; compound incubated with enzyme at 37° C. for 30 minutes; pH 7.4; read-out: Inhibitory Activity (IC50, nM) human VAP-1
T3 construct: purchased R&D systems
T3 sequence (Q16853 1-763): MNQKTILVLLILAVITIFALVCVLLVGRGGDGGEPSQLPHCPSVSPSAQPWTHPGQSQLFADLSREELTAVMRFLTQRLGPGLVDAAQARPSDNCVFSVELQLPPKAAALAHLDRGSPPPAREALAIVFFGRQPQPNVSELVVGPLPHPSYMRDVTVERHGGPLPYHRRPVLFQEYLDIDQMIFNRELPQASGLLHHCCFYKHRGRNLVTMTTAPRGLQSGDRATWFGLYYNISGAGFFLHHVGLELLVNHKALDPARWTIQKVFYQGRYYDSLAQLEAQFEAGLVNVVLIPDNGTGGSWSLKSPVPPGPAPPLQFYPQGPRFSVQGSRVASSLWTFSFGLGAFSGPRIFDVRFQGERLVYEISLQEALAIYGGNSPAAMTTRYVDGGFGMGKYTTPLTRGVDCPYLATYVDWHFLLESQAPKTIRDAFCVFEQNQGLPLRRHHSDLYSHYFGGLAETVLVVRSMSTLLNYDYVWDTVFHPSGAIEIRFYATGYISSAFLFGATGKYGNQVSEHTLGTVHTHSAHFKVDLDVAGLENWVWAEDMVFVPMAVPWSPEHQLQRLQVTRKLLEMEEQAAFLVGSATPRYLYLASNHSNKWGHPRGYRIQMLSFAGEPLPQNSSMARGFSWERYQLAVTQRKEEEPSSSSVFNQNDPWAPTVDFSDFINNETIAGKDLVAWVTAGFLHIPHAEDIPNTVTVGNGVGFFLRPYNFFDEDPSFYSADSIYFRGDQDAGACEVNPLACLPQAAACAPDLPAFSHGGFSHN
Outline: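 Compounds were preincubated with purified enzyme in 50 mM sodium phosphate pH 7.4 at 37 °C for 30 min, then 200 uM Amplex Red, 1 mM benzylamine and 1 U/mL HRP were added. Resorufin fluorescence (ex 544/em 590 nm) was followed over 1-2 h; IC50 came from 4-parameter fits of signal-rate inhibition.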

[3] = molecular target: T4, recombinant human MAO-B (monoamine oxidase-B) (Homo sapiens, UniProt P27338); test: Activity on recombinant human MAO-B, method similar to the VAP-1 assay; conditions: substrate 1 mM benzylamine; read-out: Inhibitory Activity (IC50, nM) MAO-B
T4 construct: purchased Sigma-Aldrich
T4 sequence (P27338 1-520): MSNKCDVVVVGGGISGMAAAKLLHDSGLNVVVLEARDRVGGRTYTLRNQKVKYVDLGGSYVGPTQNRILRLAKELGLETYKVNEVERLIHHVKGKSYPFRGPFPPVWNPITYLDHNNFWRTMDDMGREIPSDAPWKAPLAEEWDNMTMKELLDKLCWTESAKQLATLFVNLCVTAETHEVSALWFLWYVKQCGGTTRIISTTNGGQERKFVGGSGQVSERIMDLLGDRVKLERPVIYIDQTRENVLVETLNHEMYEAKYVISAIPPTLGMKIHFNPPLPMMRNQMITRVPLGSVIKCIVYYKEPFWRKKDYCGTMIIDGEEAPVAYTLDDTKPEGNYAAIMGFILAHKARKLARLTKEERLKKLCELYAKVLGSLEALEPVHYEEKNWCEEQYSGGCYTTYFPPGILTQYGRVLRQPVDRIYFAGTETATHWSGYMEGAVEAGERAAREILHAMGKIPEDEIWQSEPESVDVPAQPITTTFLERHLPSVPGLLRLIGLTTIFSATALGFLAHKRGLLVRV
Outline: as §1

IC50 [1]	IC50 [2]	IC50 (recombinant human VAP-1)	IC50 [3]	Compound
300 nM	> 100000 nM	0.1 nM	6300 nM	NC/C(=C\F)Cn1ncn(Cc2ccc(-c3cc(F)c4[nH]c(=O)ccc4c3)s2)c1=O [Example 82, 6-[5-(1-[(2E)-2-(aminomethyl)-3-fluoroprop-2-en-1-yl]-5-oxo-1,5-dihydro-4H-1,2,4-triazol-4-ylmethyl)thiophen-2-yl]-8-fluoroquinolin-2(1H)-one hydrochloride]
280 nM	36000 nM	0.5 nM	650 nM	Cc1cc(-c2ccc(Cn3cnn(C/C(=C/F)CN)c3=O)s2)cc2c(C(F)(F)F)cc(=O)[nH]c12 [Example 83, 6-[5-[[1-[(E)-2-(aminomethyl)-3-fluoro-allyl]-5-oxo-1,2,4-triazol-4-yl]methyl]-2-thienyl]-8-methyl-4-(trifluoromethyl)-1H-quinolin-2-one]
1300 nM	63000 nM	0.2 nM	> 10000 nM	NC/C(=C\F)Cn1ncn(Cc2ccc(-c3ccc4c(c3)OCC(=O)N4)s2)c1=O [Example 84, 7-[5-(1-[(2E)-2-(aminomethyl)-3-fluoroprop-2-en-1-yl]-5-oxo-1,5-dihydro-4H-1,2,4-triazol-4-ylmethyl)thiophen-2-yl]-2H-1,4-benzoxazin-3(4H)-one hydrochloride]
320 nM	> 100000 nM	0.3 nM	1700 nM	NC/C(=C\F)Cn1ncn(Cc2ccc(-c3ccc4c(c3)SCC(=O)N4)s2)c1=O [Example 85, 7-[5-[[1-[(E)-2-(aminomethyl)-3-fluoro-allyl]-5-oxo-1,2,4-triazol-4-yl]methyl]-2-thienyl]-4H-1,4-benzothiazin-3-one hydrochloride]
380 nM	> 100000 nM	0.2 nM	2500 nM	CN1C(=O)COc2cc(-c3ccc(Cn4cnn(C/C(=C/F)CN)c4=O)s3)ccc21 [Example 86, 7-[5-[[1-[(E)-2-(aminomethyl)-3-fluoro-allyl]-5-oxo-1,2,4-triazol-4-yl]methyl]-2-thienyl]-4-methyl-1,4-benzoxazin-3-one hydrochloride]
760 nM	> 100000 nM	0.4 nM	2700 nM	CC1(C)Oc2cc(-c3ccc(Cn4cnn(C/C(=C/F)CN)c4=O)s3)ccc2NC1=O [Example 87, 7-[5-[[1-[(E)-2-(aminomethyl)-3-fluoro-allyl]-5-oxo-1,2,4-triazol-4-yl]methyl]-2-thienyl]-2,2-dimethyl-4H-1,4-benzoxazin-3-one]
897 nM	> 100000 nM	0.3 nM	2400 nM	Cc1c(-c2ccc(Cn3cnn(C/C(=C/F)CN)c3=O)s2)ccc2c1NC(=O)CC2 [Example 88, 7-[5-[[1-[(E)-2-(aminomethyl)-3-fluoro-allyl]-5-oxo-1,2,4-triazol-4-yl]methyl]-2-thienyl]-8-methyl-3,4-dihydro-1H-quinolin-2-one]
230 nM	24000 nM	0.4 nM	660 nM	NC/C(=C\F)Cn1ncn(Cc2ccc(-c3ccc4c(c3)NC(=O)CO4)s2)c1=O [Example 90, 6-[5-(1-[(2E)-2-(aminomethyl)-3-fluoroprop-2-en-1-yl]-5-oxo-1,5-dihydro-4H-1,2,4-triazol-4-ylmethyl)thiophen-2-yl]-2H-1,4-benzoxazin-3(4H)-one hydrochloride]
340 nM	> 10000 nM	0.9 nM	3200 nM	Cc1cc(-c2ccc(Cn3cnn(C/C(=C/F)CN)c3=O)s2)cc2c1OCC(=O)N2 [Example 91, 6-[5-(1-[(2E)-2-(aminomethyl)-3-fluoroprop-2-en-1-yl]-5-oxo-1,5-dihydro-4H-1,2,4-triazol-4-ylmethyl)thiophen-2-yl]-8-methyl-2H-1,4-benzoxazin-3(4H)-one hydrochloride]
350 nM	29000 nM	0.2 nM	600 nM	Cc1c(-c2ccc(Cn3cnn(C/C(=C/F)CN)c3=O)s2)ccc2c1NC(=O)CO2 [Example 92, 6-[5-[[1-[(E)-2-(aminomethyl)-3-fluoro-allyl]-5-oxo-1,2,4-triazol-4-yl]methyl]-2-thienyl]-5-methyl-4H-1,4-benzoxazin-3-one hydrochloride]
230 nM	54000 nM	0.4 nM	1100 nM	NC/C(=C\F)Cn1ncn(Cc2ccc(-c3cc4c(cc3F)OCC(=O)N4)s2)c1=O [Example 93, 6-[5-(1-[(2E)-2-(aminomethyl)-3-fluoroprop-2-en-1-yl]-5-oxo-1,5-dihydro-4H-1,2,4-triazol-4-ylmethyl)thiophen-2-yl]-7-fluoro-2H-1,4-benzoxazin-3(4H)-one hydrochloride]
160 nM	11000 nM	0.3 nM	1700 nM	NC/C(=C\F)Cn1ncn(Cc2ccc(-c3cc(F)c4c(c3)NC(=O)CO4)s2)c1=O [Example 94, 6-[5-[[1-[(E)-2-(aminomethyl)-3-fluoro-allyl]-5-oxo-1,2,4-triazol-4-yl]methyl]-2-thienyl]-8-fluoro-4H-1,4-benzoxazin-3-one hydrochloride]
